Data published in patent publication US10774083B2, “Heterocyclic amide compound” (TAKEDA PHARMACEUTICAL COMPANY LIMITED, priority 2016, dated 2020).

What was measured:
[1] = tested on: human ovarian cancer cells A2780; experiment: proliferation inhibitory activity against human ovarian cancer cell A2780 (CellTiter-Glo); format: cell-based; conditions: A2780, 72 h, 1 μM test compound, 3 days of culture, read-out: proliferation inhibitory rate (%) of A2780 cells
Description: The proliferation inhibitory activity of the compound of the present invention against human ovarian cancer cell A2780 was evaluated by the following method.
Human ovarian cancer cells A2780 were seeded in a 384 well culture plate at 1000 cells in 30 μL of medium per well by using RPMI-1640 medium (Wako Pure Chemical Industries, Ltd.) containing 10% fetal bovine serum and penicillin/streptomycin. The next day, 10 μL of RPMI-1640 medium containing the test compound was added to the cells. After 3 days of culture, 20 μL of CellTiter-Glo Luminescent Cell Viability Assay solution (Promega) was added. The luminescence signal was measured using EnVision (PerkinElmer) and the inhibitory rate (%) of the test compound was calculated with a well free of seeding of cell as 100% inhibition.

[2] = target: T1, human PRS protein (His-Avi-hEPRS (998-1512)) (Homo sapiens, UniProt P07814); experiment: PRS inhibitory activity ([32P]pyrophosphate exchange enzyme assay); format: biochemical; conditions: 300 nM test compound; read-out: inhibitory rate (%) of PRS
T1 construct: to construct His-Avi-hEPRS (998-1512) expression plasmid; His tag (N); Avi tag (N); TEV cleavage site (ENLYFQG, then S; inferred from the forward primer hEPRS-TEV-NheF) (N); made in house; host or cells: E. coli BL21(DE3)
T1 sequence (P07814 998-1512 limits assumed): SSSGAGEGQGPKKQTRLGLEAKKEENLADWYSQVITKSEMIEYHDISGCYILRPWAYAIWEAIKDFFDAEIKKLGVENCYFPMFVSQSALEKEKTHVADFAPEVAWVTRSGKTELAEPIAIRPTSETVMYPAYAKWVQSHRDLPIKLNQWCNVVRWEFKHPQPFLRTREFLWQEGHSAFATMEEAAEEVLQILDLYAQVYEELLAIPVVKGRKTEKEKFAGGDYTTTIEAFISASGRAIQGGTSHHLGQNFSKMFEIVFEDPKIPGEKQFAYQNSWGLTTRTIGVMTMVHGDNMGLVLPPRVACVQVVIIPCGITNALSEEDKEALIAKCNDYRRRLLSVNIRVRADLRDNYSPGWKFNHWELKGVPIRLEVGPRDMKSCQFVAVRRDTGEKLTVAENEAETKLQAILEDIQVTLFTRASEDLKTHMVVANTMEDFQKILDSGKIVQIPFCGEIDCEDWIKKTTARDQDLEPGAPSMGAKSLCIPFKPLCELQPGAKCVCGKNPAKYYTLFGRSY
Description: The PRS inhibitory activity of the compounds of the present invention was evaluated by the following method.
An expression plasmid of Catalytic Domain of human EPRS was obtained by PCR using human skeletal muscle cDNA Library (Takara Bio Inc.) as a template and 2 kinds of Primers 5′-[…]-3′ (hEPRS-TEV-NheF) (SEQ ID NO: 1) and 5′-[…]-3′ (hEPRS-St-Not-R) (SEQ ID NO: 2). PCR was performed using PrimeStar GXL DNA Polymerase (Takara Bio Inc.) and included (1) 98° C., 1 min, (2) 35 cycles of 98° C., 10 sec, 65° C., 10 sec, 72° C., 1 min, and (3) reaction at 72° C., 1 min. This was cleaved with Nhe I and Not I (Takara Bio Inc.) and inserted using Ligation High (TOYOBO CO., LTD.) into the Nhe I/Not I site of pET21a (Novagen) with His-Avitag inserted thereinto. This was introduced into ECOS JM109 (NIPPON GENE CO., LTD.) to construct His-Avi-hEPRS (998-1512) expression plasmid.
Recombinant human PRS protein was prepared by transforming the His-Avi-hEPRS (998-1512) expression plasmid prepared above into ECOS Competent E. coli BL21(DE3) (NIPPON GENE CO., LTD.). Escherichia coli obtained by transformation was inoculated into 300 mL of LB medium (1% peptone, 0.5% yeast extract, 0.5% sodium chloride, 0.01% ampicillin) and cultured at 30° C. for 16 hr. The obtained culture medium was transferred into a jar culture tank charged with 6 L of the main fermentation medium (0.3% potassium dihydrogen phosphate, 0.6% disodium hydrogen phosphate, 0.1% ammonium chloride, 0.05% sodium chloride, 0.024% magnesium sulfate, 0.02% NEWPOL LB-625, 1.5% sorbitol, 1.5% casamino acid, 0.5% yeast extract, 0.01% ampicillin) and culturing was started at 37° C., quantity of airflow 5 L/min, stirring rotating speed 400 rpm. At the time point when the turbidity of the culture medium reached about 550 Klett units, the culture temperature was lowered to 16° C., isopropyl-β-D-thiogalactopyranoside (IPTG) was added to the final concentration 0.1 mM, and culturing was performed for another 16 hr to induce expression of human PRS. After completion of culturing, the culture medium was centrifuged at 5,000 rpm for 10 min. The obtained human PRS expressing Escherichia coli was suspended in a buffer containing 50 mM Tris-HCl (pH 8.0), 150 mM NaCl, 1 mM DTT, 5 U/ml Benzonase, 20 mM Imidazole and sonicated using Sonifier (BRANSON). The homogenate was centrifuged (33,000×G, 60 min, Beckman Coulter), the obtained supernatant was subjected to adsorption by passage through Ni-NTA Superflow (QIAGEN) column equilibrated in advance with 50 mM Tris-HCl (pH 8.0), 300 mM NaCl, 1 mM DTT, and elution was performed with a buffer containing 50 mM Tris-HCl (pH 8.0), 300 mM NaCl, 1 mM DTT, 250 mM Imidazole. Furthermore, gel filtration was performed using Superdex200 pg column equilibrated in advance with a buffer containing 50 mM Tris-HCl (pH 8.0), 150 mM NaCl, 1 mM DTT, 10% glycerol to give purified human PRS protein. The protein concentration was measured using BCA Protein Assay Kit (PIERCE) and BSA as the standard.
A test compound was dissolved in 5 μL of an assay buffer (50 mM Tris-HCl (pH 7.5), 20 mM KCl, 1 mM DTT, 0.01% Tween 20) and incubated for 60 min with 5 μL of 40 nM human PRS protein dissolved in the assay buffer containing 40 mM MgCl2. An enzyme reaction of the human PRS protein was started by adding 10 μL of a substrate solution containing 300 μM ATP, 160 μM L-Proline, 400 μM pyrophosphate, [^32P]pyrophosphate (PerkinElmer) prepared to 1 MBq/mL. After incubation at room temperature for 30 min, the reaction was discontinued by adding 50 μL of discontinuation/washing solution (1M HCl, 200 mM sodium pyrophosphate) to the reaction mixture. The reaction solution was transferred to a filter plate (Merck Millipore, Billerica, Mass.) previously added with 200 μL of charcoal solution (0.5% HCl solution containing 10% charcoal (w/v)). […]

Row | inhibition at 0.3 µM [2] [%] | SMILES | inhibition at 1 µM [1] [%]
1 | 101 | Cn1cc(-c2cc(F)cc(CNC(=O)c3ncnc4nc(C5CCCC5)[nH]c34)c2)cn1 [Example 2, 8-cyclopentyl-N-(3-fluoro-5-(1-methyl-1H-pyrazol-4-yl)benzyl)-7H-purine-6-carboxamide] | 97
2 | 98 | Cn1cc(-c2cc(F)cc(CNC(=O)c3nccc4nc(CC5CCCC5)[nH]c34)c2)cn1 [Example 104, 2-(cyclopentylmethyl)-N-(3-fluoro-5-(1-methyl-1H-pyrazol-4-yl)benzyl)-3H-imidazo[4,5-c]pyridine-4-carboxamide] | 68
3 | 101 | Cn1cc(-c2cc(F)cc(CNC(=O)c3ncc(F)c4nc(C5CCCC5)n(C)c34)c2)cn1 [Example 113, 2-cyclopentyl-7-fluoro-N-(3-fluoro-5-(1-methyl-1H-pyrazol-4-yl)benzyl)-3-methyl-3H-imidazo[4,5-c]pyridine-4-carboxamide] | 99
4 | 97 | Cn1cc2c(CNC(=O)c3nccc4nc(C5CCCC5)[nH]c34)cccc2n1 [Example 94, 2-cyclopentyl-N-((2-methyl-2H-indazol-4-yl)methyl)-3H-imidazo[4,5-c]pyridine-4-carboxamide] | 64
5 | 101 | Cn1cc(-c2cc(F)cc(CNC(=O)c3nccc4nc(C5CCCC5)[nH]c34)c2)cn1 [Example 86, 2-cyclopentyl-N-(3-fluoro-5-(1-methyl-1H-pyrazol-4-yl)benzyl)-3H-imidazo[4,5-c]pyridine-4-carboxamide] | 97
6 | 101 | Cn1cc(-c2cc(F)cc(CNC(=O)c3nccc4nc(C5CCCC5)n(C)c34)c2)cn1 [Example 88, 2-cyclopentyl-N-(3-fluoro-5-(1-methyl-1H-pyrazol-4-yl)benzyl)-3-methyl-3H-imidazo[4,5-c]pyridine-4-carboxamide] | 99
7 | 100 | Cn1ncc(-c2cc(F)cc(CNC(=O)c3ncnc4nc(C5CCCC5)[nH]c34)c2)n1 [Example 71, 8-cyclopentyl-N-(3-fluoro-5-(2-methyl-2H-1,2,3-triazol-4-yl)benzyl)-7H-purine-6-carboxamide] | 70
8 | 100 | Cc1cc(N2CCC3(CCC3)C2=O)cc(C(=O)NCc2cc(F)cc(-c3cnn(C)c3)c2)n1 [Example 232, N-(3-fluoro-5-(1-methyl-1H-pyrazol-4-yl)benzyl)-6-methyl-4-(5-oxo-6-azaspiro[3.4]oct-6-yl)pyridine-2-carboxamide] | 64
9 | 101 | Cc1cc(CNC(=O)c2cc(N3CC[C@@](C#N)(C4CC4)C3=O)cc(C)n2)cc(-c2cnn(C)c2)c1 [Example 217, 4-((3S)-3-cyano-3-cyclopropyl-2-oxopyrrolidin-1-yl)-6-methyl-N-(3-methyl-5-(1-methyl-1H-pyrazol-4-yl)benzyl)pyridine-2-carboxamide] | 80
10 | 99 | Cc1cc(N2C(=O)[C@](C#N)(C3CC3)C[C@@H]2C)cc(C(=O)NCc2cc(F)cc(-c3cnn(C)c3)c2)n1 [Example 221, 4-((3S,5S)-3-cyano-3-cyclopropyl-5-methyl-2-oxopyrrolidin-1-yl)-N-(3-fluoro-5-(1-methyl-1H-pyrazol-4-yl)benzyl)-6-methylpyridine-2-carboxamide] | 64
11 | 99 | Cn1cc(-c2cc(F)cc(CNC(=O)c3nccc4nc(C5CCOC5)[nH]c34)c2)cn1 (centres unmarked) [Example 103, N-(3-fluoro-5-(1-methyl-1H-pyrazol-4-yl)benzyl)-2-(tetrahydrofuran-3-yl)-3H-imidazo[4,5-c]pyridine-4-carboxamide] | 73
12 | 102 | CC(C)n1cc(-c2cc(F)cc(CNC(=O)c3ncnc4nc(C5CCCC5)[nH]c34)c2)cn1 [Example 11, 8-cyclopentyl-N-(3-fluoro-5-(1-isopropyl-1H-pyrazol-4-yl)benzyl)-7H-purine-6-carboxamide] | 95
13 | 100 | Cc1cc(N2CC[C@@](C#N)(C3CC3)C2=O)cc(C(=O)NCc2cc(F)cc(-c3ccc(=O)n(C)c3)c2)n1 [Example 169, 4-((3S)-3-cyano-3-cyclopropyl-2-oxopyrrolidin-1-yl)-N-(3-fluoro-5-(1-methyl-6-oxo-1,6-dihydropyridin-3-yl)benzyl)-6-methylpyridine-2-carboxamide] | 98
14 | 102 | Cn1cc(-c2cc(F)cc(CNC(=O)c3ncnc4nc(C5CCCCO5)n(C)c34)c2)cn1 (centres unmarked) [Example 63, N-(3-fluoro-5-(1-methyl-1H-pyrazol-4-yl)benzyl)-7-methyl-8-(tetrahydro-2H-pyran-2-yl)-7H-purine-6-carboxamide] | 98
15 | 99 | Cc1cc(N2CC[C@@](C#N)(C3CC3)C2=O)cc(C(=O)NCc2cc(C#N)cc(-c3cnn(C)c3)c2)n1 [Example 167, 4-((3S)-3-cyano-3-cyclopropyl-2-oxopyrrolidin-1-yl)-N-(3-cyano-5-(1-methyl-1H-pyrazol-4-yl)benzyl)-6-methylpyridine-2-carboxamide] | 98
16 | 100 | O=C(NCc1cc(F)cc(-c2cnn(C3CC3)c2)c1)c1ncnc2nc(C3CCCC3)[nH]c12 [Example 14, 8-cyclopentyl-N-(3-(1-cyclopropyl-1H-pyrazol-4-yl)-5-fluorobenzyl)-7H-purine-6-carboxamide] | 97
